Data reported in paper PMC8880385 (Pharmaceuticals, 2022).
“Also recorded” adds a separate entry of the source.

Experiments:
Loa loa mf = assay: Loa loa microfilariae motility counter-screen; assay type: cell-based; details: Loa loa, 120 h, Day 5
Experimental: (§1) To assess the effects of the compounds on O. ochengi mf, the mf were harvested from infected cow skin and cultured (10–15 mf per well) in 100 µL media in 96-well plates with a confluent feeder layer of monkey kidney epithelial cells (MK2) as previously described. […] All compounds were also counter-screened with L. loa mf collected from infected individuals with approval from the University of Buea (IRB approval # 964-19). Mf were separated from blood cells using a Percoll gradient as previously described and set up for assays (10–15 mf per well).

O. volvulus pre-adult L5 [1] = assay: O. volvulus pre-adult (Ov L5) motility assay; assay type: cell-based; details: Onchocerca volvulus, 504 h; on Day 21; read-out: O. volvulus L5 Inhibition of Motility IC50
[2] = test system: Brugia pahangi female worms; assay: Ex vivo microfilarial release and embryograms of female worms from treated gerbils; assay type: in vivo; details: females from gerbils treated IP 1 mg/kg
Experimental: To test the effects of the compounds on female worm fertility, all surviving female worms were examined ex vivo to quantify the amount of mf released and profile the various stages of embryonic development within the uteri of individual female worms. After necropsy, female worms were incubated in individual wells of a 24-well plate with 2 mL Brugia culture media at 37 °C and 5% CO2. After 24 h, the number of mf released by each adult female was determined by counting the mf in a 0.5 mL sample of the media and multiplying by 4 to calculate the total number of mf. Additionally, embryogram analyses on the individual female worms was performed as described. […] The embryonic developmental stages (eggs, embryos, pre-mf and mf) were determined in two 10 μL aliquots using a compound microscope and hemocytometer. A minimum of 200 events were assessed from each female worm and at least 3 females were analyzed per animal from at least 3 animals per treatment group. The intra-uterine embryogram was expressed as the relative proportions of different stages of development: eggs, embryos, pre-mf, stretched mf and deformed embryos in the total number of events.
Worm burden, peritoneal mf counts, overnight mf sheds and qPCR data were analyzed using a Kruskal–Wallis test followed by Dunn’s multiple comparison. […] All statistical analyses were determined using Prism 8 version 8.2.0(272).

[3] = test system: Brugia pahangi adult females; assay: In vitro motility assay with adult female Brugia pahangi (Worminator)
O. volvulus pre-adult L5 [4] = assay: Ov L5 viability by endpoint MTT assay; assay type: cell-based, Onchocerca volvulus; details: 1 µM
Experimental: Briefly, Ov L3 larvae were cultured to the pre-adult/L5 stage in vitro as described by Voronin et al., 2019 [45]. Once larvae reached the L5 stage (after at least 70 days in culture), 8–10 Ov L5 were moved to new transwell inserts in a 24-well plate containing 0.5 mL Ov L4-CMS media seeded with a 3 × 10^4/well Human Umbilical Vein Endothelial Cells (HUVEC) monolayer. Duplicate wells were treated with 1 and/or 10 µM of compound. Ov L5 were exposed to compounds for 14 days (exchanged 50% of media with fresh compound every two days) and then cultured with new media without compound, exchanging 50% of media every 2–3 days, up to day 36. Control Ov L5 were treated with 0.05% DMSO. […] Motility was assessed visually and ranked on a 0–100% scale every 2–3 days over the course of the assay. At the end of the motility assay, Ov L5 viability was measured by 3-(4,5-dimethylthiazol-2-yl)-2,5-diphenyltetrazolium bromide (MTT) assay. Ov L5 were incubated with 0.1% MTT in PBS at 37 °C for 1 h then visually inspected for blue coloration indicating MTT reduction. Worms were considered dead if <50% of the worm was stained blue, and worms were considered alive if >50% of the worm was stained blue.

O. ochengi mf = assay: O. ochengi microfilariae motility assay; assay type: cell-based, Onchocerca ochengi; details: Onchocerca ochengi, 120 h; 10 µM, Day 5
Experimental: as §1

O. ochengi adult males = assay: O. ochengi adult male motility assay; assay type: cell-based; details: Onchocerca ochengi, 120 h; read-out: O. ochengi Adult Males Inhibition of Motility Day 5 IC50
Excerpt: As humans are the only hosts for O. volvulus which are unavailable for screening, drug discovery relies on the surrogate filarial parasites Brugia spp. and cattle Onchocerca spp. Prioritized compounds from the Brugia worm screens were further tested with female and male adult O. ochengi as well as O. ochengi and L. loa mf.
For these assays, O. ochengi adults were extracted from the subcutaneous nodules of infected cow skins purchased from the local slaughterhouse (Douala, Littoral Region, Cameroon) and incubated in 4 mL complete culture media comprised of RPMI-1640 (Sigma-Aldrich), 5% newborn calf serum, 200 units/mL penicillin, 200 μg/mL streptomycin and 2.5 μg/mL amphotericin B (Sigma-Aldrich) in 12-well plates overnight to validate sterility prior to the assays. Four to eight O. ochengi adult masses were treated individually the following day with a serial dilution of each compound, and controls were treated with 1% DMSO. While in culture, the male worms normally egress from the nodules into the surrounding media and thus can be monitored in parallel for motility. The O. ochengi adult masses were incubated at 37 °C with 5% CO2 for the duration of the assay. Male motility within each well was visually scored every day and over 5 days after compound addition, and female viability within the nodules was assessed by MTT after 7 days as previously described. The O. ochengi adult masses containing female worms were individually placed in wells of a 48-well plate with 0.5 mL of 0.5 mg/mL MTT in PBS and incubated at 37 °C for 30 min. Female viability was visually rated by the degree of formazan production (live worms have blue coloration) in the female worm within the treated nodule versus control worm masses. […] Prism 4.0 for Windows was used to calculate IC50s.

Cc1ccc2c(ccc(/C=C/c3c(C)nn(-c4ccccc4)c3C)[n+]2C)c1.[I-] [Analog 06, 2-[(E)-2-(3,5-dimethyl-1-phenyl-1H-pyrazol-4-yl)ethenyl]-1,6-dimethylquinolin-1-ium iodide]
inhibition at 10 µM (Loa loa mf): 88%
IC50 (O. volvulus pre-adult L5 [1]): 0.22 µM
Deformed embryos in gonads of female worms (embryogram) vs vehicle [2]: statistically significant increase in the number of deformed embryos
Mf released by female worms after 24 h ex vivo (overnight shed) vs vehicle [2]: significantly lower numbers of mf; also recorded: significantly reduced
Brugia Adult Females Inhibition of Motility Day 3 @ 1 µM ([3]; 1 µM, Day 3, 1 µM): 71%
inhibition at 1 µM ([3]; Brugia pahangi, 72 h, read-out: Brugia Adult Females Inhibition of Motility Day 3 @ 1 µM, 1 µM, Day 3): > 70%
IC50 ([3]; Brugia pahangi, 72 h, read-out: Brugia Adult Females Inhibition of Motility Day 3 IC50): 0.733 µM
Brugia Adult Females Inhibition of Motility Day 3 IC50 ([3]; Day 3): sub-micromolar range
O. volvulus L5 % inhibition of viability Day 37 (MTT assay) (O. volvulus pre-adult L5 [4]): 88%
inhibition at 10 µM (O. ochengi mf): 46%
IC50 (O. ochengi adult males): 2.75 µM
